Results taken from patent publication US4071528A, “Certain thiazolidine and tetrahydrothiazine compounds” (May & Baker Limited, priority 1975, dated 1978).
Where two headings read alike, the source gives them in different places.

Columns and labels:
[1] = test system: Nippostrongylus brasiliensis; experiment: Activity against roundworms in rats, A.1: treatment 6 days after infection (patent infection), post-mortem worm counts; assay type: in vivo; details: 48 h, treated 6 days after infection, read-out: % Reduction of mean worm load
Description: In the Tables of results "s.c." means subcutaneous and the doses are expressed in mg/kg animal body weight. […] A.1. Rats were infected with 100 Nippostrongylus brasiliensis larvae each, by the subcutaneous route. After 6 days, when the infection was patent, the rats were randomised and allotted to groups of 5 animals each, ready for treatment. One group was used for each dose level of the test compound, which was administered by the oral or subcutaneous route, and in each experiment, one group of 10 animals was left untreated as a control. All the rats were killed for post-mortem worm counts 48 hours after treatment. The activities, expressed in terms of the percentage reduction in mean worm load of the treated groups compared with the untreated group, are shown in Table I.

[2] = test system: Nippostrongylus brasiliensis; experiment: Activity against roundworms in rats, A.2: treatment 24 hours after infection, post-mortem worm counts; assay type: in vivo; details: 144 h, treated 24 hours after infection, read-out: % Reduction of mean worm load
Description: In the Tables of results "s.c." means subcutaneous and the doses are expressed in mg/kg animal body weight. […] A.2. Rats were infected with 100 Nippostrongylus brasiliensis larvae each, by the subcutaneous route. After 24 hours the rats were randomised and allotted to groups of 5 animals each, ready for treatment. Doses of the test compound were then administered to each group by the oral or subcutaneous route, one group of 10 animals being left untreated as a control. All the rats were killed for post-mortem worm counts 6 days after dosing. The activities, expressed in terms of the percentage reduction in mean worm load of the treated groups compared with the untreated control group, are given below in Table II.

[3] = test system: Cooperia oncophora and Ostertagia ostertagi; experiment: C.1 Activity against Cooperia oncophora and Ostertagia ostertagi in their adult stages in calves, faecal egg counts; assay type: in vivo; details: s.c. (methanesulphonate salt)
Description: In the Tables of results "s.c." means subcutaneous and the doses are expressed in mg/kg animal body weight. […] C.1. Activity against Cooperia oncophora and Ostertagia ostertagi in their adult stages in calves. Worm-free, 6-7 week old calves were each infected with 15,000 C. oncophora and 15,000 O. ostertagi larvae. Approximately 3 weeks later, doses of the test compound were administered to each group of 2 animals by the subcutaneous route, one group of two animals being left untreated as a control. Individual faecal egg counts were determined 1 day before treatment and 5-7 days after treatment.

[4] = Oral acute toxicity (LD50) in mice; details: mouse, in vivo, observed during next 6 days
Excerpt: Mice were each treated orally with one of the compounds of formula I, and they were observed during the next 6 days. The LD50 figures obtained (doses lethal to 50% of mice tested) are shown in Table VII, expressed in mg/kg animal body weight.

Fasciola hepatica = experiment: D. Activity against mature and immature liver flukes in sheep; assay type: in vivo; details: oral 25 mg/kg in gelatin capsules; for Mean % Reduction, Immature flukes: immature flukes in rest of liver; for Mean % Reduction, Mature flukes: mature flukes in bile ducts
Description: D. Activity against mature and immature liver flukes in sheep On the first day of the experiment a group of sheep were each infected with 300 metacercariae of liver fluke Fasciola hepatica and on the 56th day they were each infected with a further 300 metacercariae of F. hepatica. On day 70 of the experiment, doses of the test compounds of 25 mg/kg animal body weight were administered orally in gelatin capsules to groups of two animals per compound. One group of two animals was left untreated as controls. On day 98 of the experiment, all the sheep were killed. The number of mature flukes present in the bile ducts and the numbers of immature flukes present in the rest of the liver were counted. The activities, expressed in terms of the percentage reduction in mean fluke burdens compared with the untreated controls, are shown below in Table VI.

Mycosphaerella pinodes = experiment: Minimum effective concentration totally inhibiting fungal growth, Mycosphaerella pinodes, potato dextrose agar tubes; assay type: cell-based; details: Didymella pinodes, 48 h; total inhibition of fungal growth; tested at 50, 10 or 2 ppm; 25° C, 2 days
Description: Test tubes containing 4.0 ml of molten potato dextrose agar at about 50° C were inoculated with 0.5 ml of suspension of test compound and 0.5 ml of fungal suspension delivered from a sterile syringe to give a final concentration of each compound of 50, 10 or 2 ppm. Two replicate tubes were inoculated with each fungal species. After the addition of test compounds and fungal inoculum to the molten medium the tubes were sloped and the agar was allowed to set. The tubes were incubated at 25° C for either 2 days (Mycosphaerella pinodes) or 3 days (Helminthosporium avenae). […] The suspensions of test compounds were prepared by grinding 0.025 g of test compound with sterile distilled water containing 0.1 ml of 0.1% Texofor FX170 wetting agent, followed by dilution to the concentration desired. The inoculum of Mycosphaerella pinodes was prepared as follows: A one to two week old culture on Coon's agar on plates was scraped off with a glass rod and sterile distilled water and filtered through muslin. The filtrate, containing the spores, was used for inoculation.

[5] = sc, s.c. (methanesulphonate salt, aqueous)

Row | SMILES | inhibition in vivo at 100 mg/kg ([1]; oral) [%] | inhibition in vivo at 100 mg/kg [1, 5] [%] | inhibition in vivo at 50 mg/kg ([2]; oral) [%] | inhibition in vivo at 50 mg/kg [2, 5] [%] | % Reduction of mean egg count ([3]; 15 mg/kg) [%] | LD50 at 144 h [4] [mg/kg] | inhibition in vivo at 12.5 mg/kg ([2]; oral) [%] | inhibition in vivo at 100 mg/kg ([2]; oral) [%] | inhibition in vivo at 100 mg/kg [2, 5] [%] | also measured
1 | C=CCSc1ccc(N2C(=O)CSC2=NC(=O)OC)c(NC(=O)CN(C)C)c1 [B, 3-[4-allylthio-2-(2-dimethylaminoacetamido)phenyl]-2-methoxycarbonyliminothiazolidin-4-one] | 97 | 90 | 98 | 97 | 44 | > 1000 | – | – | – | –
2 | CCSc1ccc(N2C(=O)CSC2=NC(=O)OC)c(NC(=O)CN(C)C)c1 [C, 3-[4-ethylthio-2-(2-dimethylaminoacetamido)phenyl]-2-methoxycarbonyliminothiazolidin-4-one] | 74 | 89 | 90 | 98 | 100 | > 1000 | 81 | – | – | inhibition in vivo at 12.5 mg/kg [2, 5]: 86%; Mean % Reduction, Immature flukes (Fasciola hepatica): 85%; Mean % Reduction, Mature flukes (Fasciola hepatica): 72%
3 | CCN(CC)CC(=O)Nc1cc(Sc2ccccc2)ccc1N1C(=O)CSC1=NC(=O)OC [Compound D, 3-[2-(2-diethylaminoacetamido)-4-phenylthiophenyl]-2-methoxycarbonyliminothiazolidin-4-one] | 99 | 88 | 98 | 100 | 98 | > 1000 | 96 | – | – | inhibition in vivo at 25 mg/kg [2, 5]: 96%; Mean % Reduction, Immature flukes (Fasciola hepatica): 75%; Mean % Reduction, Mature flukes (Fasciola hepatica): less than 50%
4 | COC(=O)N=C1SCC(=O)N1c1cc(Sc2ccccc2)ccc1NC(=O)CN(C)C [Compound E, 3-[2-(2-dimethylaminoacetamido)-5-phenylthiophenyl]-2-methoxycarbonyliminothiazolidin-4-one] | 65 | 54 | 95 | 99 | 100 | > 1000 | – | – | – | MIC (Mycosphaerella pinodes): < 2 µg/mL
5 | COC(=O)N=C1SCC(=O)N1c1ccc(SCC2CCCCC2)cc1NC(=O)CN(C)C [F, 3-[4-cyclohexylmethylthio-2-(2-dimethylaminoacetamido)phenyl]-2-methoxycarbonyliminothiazolidin-4-one] | – | – | – | – | – | – | – | 59 | 46 | % Reduction of mean egg count ([3]; 25 mg/kg): 50%
6 | CCCCSc1ccc(N2C(=O)CSC2=NC(=O)OC)c(NC(=O)CN(C)C)c1 [G, 3-[4-n-butylthio-2-(2-dimethylaminoacetamido)phenyl]-2-methoxycarbonyliminothiazolidin-4-one] | 96 | 84 | 98 | 100 | – | > 1000 | 95 | – | – | inhibition in vivo at 12.5 mg/kg [2, 5]: 96%
7 | COC(=O)N=C1SCC(=O)N1c1ccc(SC2CCCC2)cc1NC(=O)CN(C)C [I, 3-[4-cyclopentylthio-2-(2-dimethylaminoacetamido)phenyl]-2-methoxycarbonyliminothiazolidin-4-one] | – | – | – | – | – | > 1000 | – | 96 | 99 | inhibition in vivo at 25 mg/kg ([2]; oral): 97%; inhibition in vivo at 25 mg/kg [2, 5]: 87%
8 | CCCCCSc1ccc(N2C(=O)CSC2=NC(=O)OC)c(NC(=O)CN(C)C)c1 [J, 3-[2-(2-dimethylaminoacetamido)-4-n-pentylthiophenyl]-2-methoxycarbonyliminothiazolidin-4-one] | 59 | – | 99 | 99 | – | > 1000 | – | 99 | 99 | –
9 | CCCSc1ccc(N2C(=O)CSC2=NC(=O)OC)c(NC(=O)CN(C)C)c1 [K, 3-[2-(2-dimethylaminoacetamido)-4-n-propylthiophenyl]-2-methoxycarbonyliminothiazolidin-4-one] | – | – | 97 | 98 | 85 | > 1000 | – | – | – | inhibition in vivo at 50 mg/kg ([1]; oral): 99%; inhibition in vivo at 50 mg/kg [1, 5]: 96%; inhibition in vivo at 3.125 mg/kg ([2]; oral): 92%; inhibition in vivo at 3.125 mg/kg [2, 5]: 96%
10 | COC(=O)N=C1SCC(=O)N1c1ccc(Sc2ccccc2)cc1NC(=O)CCN(C)C [L, 3-[2-(3-dimethylaminopropionamido)-4-phenylthiophenyl]-2-methoxycarbonyliminothiazolidin-4-one] | 90 | – | 81 | 90 | 84 | > 1000 | – | – | – | –
